This is an account of results in patent publication US20210040118A1, “IMMUNOMODULATORS, COMPOSITIONS AND METHODS THEREOF” (BETTA PHARMACEUTICALS CO., LTD, priority 2018, published 2021).

The experiment addresses T1, PD-1/PD-L1 (Homo sapiens, UniProt Q9NZQ7).
T1 construct: Recombinant human PD-L1 protein (19-238) with a His-tag at the C-terminus; purchased AcroBiosystems PD1-H5229 (PD-L1); PD1-H5257 (PD-1)
In words: PD-1/PD-L1 homogenous time-resolved fluorescence (HTRF) binding assay. Conditions: recombinant human PD-L1 (19-238) His-tag / human PD-1 (25-167) Fc tag. The protocol:
Resolved Fluorescence (HTRF) Binding Assay
The assays were conducted in a standard black 384-well polystyrene plate with a final volume of 20 μL. Inhibitors were first serially diluted in DMSO and then added to the plate wells before the addition of other reaction components. The final concentration of DMSO in the assay was 1%. The assays were carried out at 25° C. in the PBS buffer (pH 7.4) with 0.05% Tween-20 and 0.1% BSA. Recombinant human PD-L1 protein (19-238) with a His-tag at the C-terminus was purchased from AcroBiosy stems (PD1-H5229). Recombinant human PD-1 protein (25-167) with Fc tag at the C-terminus was also purchased from AcroBiosystems (PD1-H5257). PD-L1 and PD-1 proteins were diluted in the assay buffer and 10 μL was added to the plate well. Plates were centrifuged and proteins were preincubated with inhibitors for 40 min. The incubation was followed by the addition of […] of HTRF detection buffer supplemented with Europium cryptate-labeled anti-human IgG (PerkinElmer-AD0212) specific for Fc and anti-His antibody conjugated to SureLight®-Allophycocyanin (APC, PerkinElmer-AD0059H). After centrifugation, the plate was incubated at 25° C. for 60 min. Before reading on a PHERAstar FS plate reader (665 nm/620 nm ratio). Final concentrations in the assay were […] PD1, 10 nM PD-L1, 1 nM europium anti-human IgG and 20 nM anti-His-Allophycocyanin. IC50 determination was performed by fitting the curve of percent control activity versus the log of the inhibitor concentration using the GraphPad Prism 5.0 software.
Data obtained for the Example compounds using the PD-1/PD-L1 homogenous time-resolved fluorescence (HTRF) binding assay described in Example A is provided in Table 4.
In general terms: Time-resolved FRET reads energy transfer from a long-lived donor to a nearby acceptor.

T1 sequence (Q9NZQ7 19-238): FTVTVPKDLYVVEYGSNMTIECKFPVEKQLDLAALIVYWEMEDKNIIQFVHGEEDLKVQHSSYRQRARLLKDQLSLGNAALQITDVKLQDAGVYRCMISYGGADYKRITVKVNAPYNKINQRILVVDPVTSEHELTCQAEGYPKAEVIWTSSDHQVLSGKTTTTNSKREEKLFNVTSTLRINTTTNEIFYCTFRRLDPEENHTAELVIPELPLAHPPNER

Usually IC50 stands for the concentration that gives 50% inhibition. As to `COC(=O)NCCNCc1cnc2c(Nc3cccc(-c4cccc(Nc5nccc6cc(CNCCNC(=O)OC)cnc56)c4C)c3C)nccc2c1` [Example 158, dimethyl ((((((2,2′-dimethyl-[1,1′-biphenyl]-3,3′-diyl)bis(azanediyl))bis(1,7-naphthyridine-8,3-diyl))bis(methylene))bis(azanediyl))bis(ethane-2,1-diyl))dicarbamate], the IC50 (class symbols) is less than 25 nM.

With `O=C(c1nc2c(s1)CN(C1COC1)CC2)N1CCc2c(-c3cccc4c3CCN4C(=O)c3nc4c(s3)CN(C3COC3)CC4)cccc21` [Example 88, [4,4′-biindoline]-1,1′-diylbis((5-(oxetan-3-yl)-4,5,6,7-tetrahydrothiazolo[5,4-c]pyridin-2-yl)methanone)], the 50% inhibitory concentration (IC50) (class symbols) was less than 25 nM.

As for `Cc1c(Nc2nccc3cc(CNCC(=O)O)cnc23)cccc1-c1cccc2c1CCN2C(=O)C1=NC2CCN(CC(=O)O)CC2S1` (centres unmarked) [Example 160, ((8-((3-(1-(5-(carboxymethyl)-3a,4,5,6,7,7a-hexahydrothiazolo[5,4-c]pyridine-2-carbonyl)indolin-4-yl)-2-methylphenyl)amino)-1,7-naphthyridin-3-yl)methyl)glycine], where the note is “class symbols”, the IC50 was less than 25 nM.

In the case of `CNC(=O)CNCc1cnc2c(Nc3cccc(-c4cccc(Nc5nccc6cc(CNCC(=O)N(C)CCO)cnc56)c4C)c3C)nccc2c1` [Example 147, 2-(((8-((2,2′-dimethyl-3′-((3-(((2-(methylamino)-2-oxoethyl)amino)methyl)-1,7-naphthyridin-8-yl)amino)-[1,1′-biphenyl]-3-yl)amino)-1,7-naphthyridin-3-yl)methyl)amino)-N-(2-hydroxyethyl)-N-methylacetamide], the IC50 (class symbols) was less than 25 nM.

For `Cc1c(NC(=O)c2ncc3c(n2)CCNC3)cccc1-c1cccc(NC(=O)c2ncc3c(n2)CCNC3)c1C` [Example 188, N,N′-(2,2′-dimethyl-[1,1′-biphenyl]-3,3′-diyl)bis(5,6,7,8-tetrahydropyrido[4,3-d]pyrimidine-2-carboxamide)], the IC50 (class symbols) is less than 25 nM.

In the case of `Cc1c(NC(=O)c2nc3c(s2)CNCC3)cc(F)cc1-c1cc(F)cc(NC(=O)c2nc3c(s2)CNCC3)c1C` [Example 96, N,N′-(5,5′-difluoro-2,2′-dimethyl-[1,1′-biphenyl]-3,3′-diyl)bis(4,5,6,7-tetrahydrothiazolo[5,4-c]pyridine-2-carboxamide)], the IC50 (class symbols) is less than 25 nM.

With `O=C(Nc1cccc(-c2cccc(NC(=O)c3ncc(CNCC(F)(F)F)s3)c2Cl)c1Cl)c1ncc(CNCC(F)(F)F)s1` [Example 68, N,N′-(2,2′-dichloro-[1,1′-biphenyl]-3,3′-diyl)bis(5-(((2,2,2-trifluoroethyl)amino)methyl)thiazole-2-carboxamide)], the IC50 (class symbols) was less than 25 nM.

As for `Cc1c(Nc2nccc3cc(CNCC(=O)N(C)CCO)cnc23)cccc1-c1cccc2c1CCN2C(=O)C1=NC2CCN(CC(=O)O)CC2S1` (centres unmarked) [Example 166, 2-(2-(4-(3-((3-(((2-((2-hydroxyethyl)(methyl)amino)-2-oxoethyl)amino)methyl)-1,7-naphthyridin-8-yl)amino)-2-methylphenyl)indoline-1-carbonyl)-3a,6,7,7a-tetrahydrothiazolo[5,4-c]pyridin-5(4H)-yl)acetic acid], under “class symbols”, the 50% inhibitory concentration (IC50) is less than 25 nM.

In the case of `Cc1c(NC(=O)c2cn3c(n2)CNCC3)cccc1-c1cccc(NC(=O)c2cn3c(n2)CNCC3)c1C` [Example 8, N,N′-(2,2′-dimethyl-[1,1′-biphenyl]-3,3′-diyl)bis(5,6,7,8-tetrahydroimidazo[1,2-a]pyrazine-2-carboxamide)], the IC50 (class symbols) was less than 25 nM.

In the case of `Cc1c(NC(=O)c2ccc3c(n2)CCN(CC(=O)O)C3)cccc1-c1cccc(NC(=O)c2ccc3c(n2)CCN(CC(=O)O)C3)c1C` [Example 173, 2,2′-((((2,2′-dimethyl-[1,1′-biphenyl]-3,3′-diyl)bis(azanediyl))bis(carbonyl))bis(7,8-dihydro-1,6-naphthyridine-2,6(5H)-diyl))diacetic acid], where the note is “class symbols”, the half-maximal inhibitory concentration (IC50) is less than 25 nM.

Consider `COC(=O)N[C@H](C(=O)N1CCc2nc(C(=O)Nc3cccc(-c4cccc(NC(=O)c5ccc6c(n5)CCN(C(=O)[C@@H](NC(=O)OC)C(C)C)C6)c4C)c3C)ccc2C1)C(C)C` [Example 169, dimethyl ((2S,2'S)-((((2,2′-dimethyl-[1,1′-biphenyl]-3,3′-diyl)bis(azanediyl))bis(carbonyl))bis(7,8-dihydro-1,6-naphthyridine-2,6(5H)-diyl))bis(3-methyl-1-oxobutane-1,2-diyl))dicarbamate], for which the IC50 (class symbols) is less than 25 nM.

On to `Cc1c(Nc2nccc3cc(CN4CC[C@H](N(C)C)C4)cnc23)cccc1-c1cccc(Nc2nccc3cc(CN4CC[C@H](N(C)C)C4)cnc23)c1C` [Example 153, N3,N3′-bis(3-(((S)-3-(dimethylamino)pyrrolidin-1-yl)methyl)-1,7-naphthyridin-8-yl)-2,2′-dimethyl-[1,1′-biphenyl]-3,3′-diamine], for which, where the note is “class symbols”, the IC50 was less than 25 nM.

In the case of `Cc1c(NC(=O)c2nc3c(s2)CNCC3)cccc1-c1ccccc1` [Com. EX. No. 1, N-(2-methyl-[1,1′-biphenyl]-3-yl)-4,5,6,7-tetrahydrothiazolo[5,4-c]pyridine-2-carboxamide, reference compound], the IC50 (numeric values) is 212 nM.

Consider `Cc1c(NC(=O)c2ccc3c(n2)CCN(C)C3)cccc1-c1cccc(NC(=O)c2ccc3c(n2)CCN(C)C3)c1C` [Example 175, N,N′-(2,2′-dimethyl-[1,1′-biphenyl]-3,3′-diyl)bis(6-methyl-5,6,7,8-tetrahydro-1,6-naphthyridine-2-carboxamide)], for which the IC50 (class symbols) is less than 25 nM.

As to `Cc1c(NC(=O)c2nc3c(s2)CNCCC3)cccc1-c1cccc(NC(=O)c2nc3c(s2)CNCCC3)c1C` [Example 30, N,N′-(2,2′-dimethyl-[1,1′-biphenyl]-3,3′-diyl)bis(5,6,7,8-tetrahydro-4H-thiazolo[5,4-c]azepine-2-carboxamide)], where the note is “class symbols”, the IC50 was less than 25 nM.

For `Cc1nc(C(=O)Nc2cccc(-c3cccc(NC(=O)c4nc(C)c(CN5CCCC5)s4)c3C)c2C)sc1CN1CCCC1` [Example 28, N,N′-(2,2′-dimethyl-[1,1′-biphenyl]-3,3′-diyl)bis(4-methyl-5-(pyrrolidin-1-ylmethyl)thiazole-2-carboxamide)], the concentration for half-maximal inhibition (IC50) (class symbols) was less than 25 nM.

Take `NCc1nc(C(=O)N2CCc3c(-c4cccc5c4CCN5C(=O)c4n[nH]c(CN)n4)cccc32)n[nH]1` [Example 137, (5-((12-azanyl)methyl)-1H-1,2,4-triazol-3-yl)(1′-(5-(aminomethyl)-1H-1,2,4-triazole-3-carbonyl)-[4,4′-biindolin]-1-yl)methanone]: the IC50 (class symbols) is 100 to 200 nM.

On to `Cc1c(Nc2nccc3cc(CNCC(=O)O)cnc23)cccc1-c1cccc(Nc2nccc3cc(CN4CC[C@H](N(C)C)C4)cnc23)c1C` [Example 154, (S)-((8-((3′-((3-((3-(dimethylamino)pyrrolidin-1-yl)methyl)-1,7-naphthyridin-8-yl)amino)-2,2′-dimethyl-[1,1′-biphenyl]-3-yl)amino)-1,7-naphthyridin-3-yl)methyl)glycine], for which the IC50 (class symbols) was less than 25 nM.

With `CN(C)Cc1cnc(C(=O)N2CCc3c(-c4cccc5c4CCN5C(=O)c4ncc(CN(C)C)s4)cccc32)s1` [Example 112, [4,4′-biindoline]-1,1′-diylbis((5-((dimethylamino)methyl)thiazol-2-yl)methanone)], the half-inhibitory concentration (IC50) (class symbols) is less than 25 nM.

Consider `Cc1c(NC(=O)c2ccc3c(n2)CCN(CC(F)F)C3)cccc1-c1cccc(NC(=O)c2ccc3c(n2)CCN(CC(F)F)C3)c1C` [Example 187, N,N′-(2,2′-dimethyl-[1,1′-biphenyl]-3,3′-diyl)bis(6-(2,2-difluoroethyl)-5,6,7,8-tetrahydro-1,6-naphthyridine-2-carboxamide)], for which the half-inhibitory concentration (IC50) (class symbols) is 25 to 100 nM.

In the case of `NC(=O)NCCN1CCc2nc(C(=O)N3CCc4c(-c5cccc6c5CCN6C(=O)c5nc6c(s5)CN(CCNC(N)=O)CC6)cccc43)sc2C1` [Example 134, 1,1′-((([4,4′-biindoline]-1,1′-dicarbonyl)bis(6,7-dihydrothiazolo[5,4-c]pyridine-2,5(4H)-diyl))bis(ethane-2,1-diyl))diurea], the IC50 (class symbols) is less than 25 nM.

For `Cc1c(NC(=O)c2nc3c(s2)CNCC3)cccc1-c1cccc(NC(=O)c2nc3c(s2)CN(C)CC3)c1Cl` [Example 50, N-(2-chloro-2′-methyl-3′-(4,5,6,7-tetrahydrothiazolo[5,4-c]pyridine-2-carboxamido)biphenyl-3-yl)-5-methyl-4,5,6,7-tetrahydrothiazolo[5,4-c]pyridine-2-carboxamide], the concentration for half-maximal inhibition (IC50) (class symbols) was less than 25 nM.

For `Cc1c(Nc2nccc3cc(CN[C@@H](C)C(=O)O)cnc23)cccc1-c1cccc2c1CCN2C(=O)C1=NC2CCN(CC(=O)O)CC2S1` (some centres unmarked) [Example 163, ((8-((3-(1-(5-(carboxymethyl)-3a,4,5,6,7,7a-hexahydrothiazolo[5,4-c]pyridine-2-carbonyl)indolin-4-yl)-2-methylphenyl)amino)-1,7-naphthyridin-3-yl)methyl)alanine], the concentration for half-maximal inhibition (IC50) (class symbols) was less than 25 nM.
